The source of these data is patent publication US5045548A, “Quinolyl methoxy compounds and their use as antiasthmatic agents” (Fujisawa Pharmaceutical Company, Ltd., priority 1987, dated 1991).

Each structure is given as a SMILES string. Where a name gives a salt, the structure may show the parent alone.

For experiment [1], the system named is SRS-A (Slow Reacting Substance of Anaphylaxis) synthesis in rat polymorpholeukocyte (PMN). Nature of the experiment: Inhibitory Activity of SRS-A synthesis in rat polymorpholeukocyte (PMN) using the calcium ionophore A23187 (i-LTC4 by radioimmunoassay). The format is cell-based, rat (male Sprague-Dawley). Particulars: Rattus norvegicus, 0.25 h, 10 μM A23187, 15 min, 37° C. The method, then: Test I: Inhibitory Activity of SRS-A (Slow Reacting Substance of Anaphylaxis) synthesis in rat polymorpholeukocyte (PMN) of using the calcium ionophore Male Sprague-Dawley rats weighing 250-300 g were anesthetized with ether and each was injected intraperitoneally with 20 ml of 0.1% clycogen (from Oyster). After 20 hours the rats were sacrificed and PMN were recovered in rinse of the peritoneal cavity with 10 ml Dulbeccos PBS (components in g/L: CaCl2 0.1, KH2 PO4 0.2, MgCl2.6H2 O 0.1, NaCl 8.0, Na2 HPO4.7H2 O 2.16; pH7.4). These rinses were filtered through nylon wool filter and centrifuged for 5 min at 1000 xg. The pellet was suspended in Dulbeccos PBS and centrifuged for 5 min at 1000 xg. The pellet was resuspended in Dulbeccos PBS and adjusted the cell concentration to 10^7 cells/ml with Dulbeccos PBS. Samples were dissolved in ethanol and dispersed in Dulbeccos PBS to give a concentration of 10^-10 -10^-5 M Antibiotic A23187; calcium ionophor ([…] Diagnostics) (hereinafter referred to A23187) in DMSO(10mM) was diluted with Dulbeccos PBS to give the concentration of 1 mM. Aliquots of the cell suspension (1×10^7 cells/ml, 0.98 ml) were equilibrated for 30 min at 37° C. Solution of sample(10 μl) was added and incubated for 15 min at 37° C. before the addition of 10 μl of A23187 solution. Thus the final incubation volume of 1 ml contained approximately 1×10^7 cells, 10^-10 -10^-5 M samples and 10 μM A23187. Incubation with A23187 were continued for 15 min at 37° C. The reactions were terminated by setting the assay tubes in ice bath to chill as rapidly as possible to 4° C. The test tubes were centrifuged at 1500 xg for 5 min at 4° C. and decanted the supernatants into the tubes and kept cold prior to assaying. The concentration of i-LTC4 in the cell-free supernatants from the incubations were determined by specific radioimmunoassay. The mean values of i-LTC4 (these incubations were carried out in duplicate) of each sample were calculated and the effect of samples on the synthesis of the leukotrienes was presented as a percentage of the value in the absence of samples.

Experiment [2] deals with CDE-induced pancreatitis in mice. Nature of the experiment: Effect on experimental pancreatitis in mice (CDE diet-induced, lethal). The class given is in vivo, mouse (female ICR). Particulars: for % survival: orally two times a day for 4 days, N = 20, control 15. From the text:
Test III: Effect on experimental pancreatitis in mice
The effect of 5-lipoxygenase inhibitor, the compound of Example 40 was studied in a lethal form of pancreatitis induced by feeding mice an ehionine-supplemented choline-deficient diet (CDE diet).
Female ICR mice, aged 3 wk were used in this study. All mice were fed a regular laboratory diet before the experiments. The CDE diet was then substituted for 2 days, and after this period replaced by the regular diet for an additional 6 days.
The compound of Example 40 was administered orally two times a day for 4 days after the beginning of the CDE diet.

The subject of experiment [3] is Intimal Thickening of Rabbit Carotid Artery. Nature of the experiment: Antiatherosclerotic activity: cuff-induced intimal thickening of rabbit carotid artery. The class given is in vivo, rabbit (male Japanese white). Particulars: i.m.; for Intimal thickening index: once a day, 3 weeks, mean ± SE (n = 8). From the text: Induction of Intimal Thickening of Rabbit Carotid Artery
Forty male Japanese white rabbits weighing about 2 kg were used for the test of the compound of Example 40. They were divided into 5 groups of 8 animals: one served as control, and the other 4 as drug dose groups. The rabbits were anesthetized with care not to injure the surrounding tissues. A polyetherylene cuff (1.5 cm long, 2.15 mm inner diameter, 3.25 mm outer diameter) was placed around the artery. The rabbits were maintained for 3 weeks on standard laboratory diet and water ad libitum. The compound of Example 40 and the vehicle (0.5%, w/v methyl cellulose in saline) were given intramuscularly once a day starting from the day of cuff-placement. At the end of the 3rd week, the rabbits were heparinized (500, i.v.), and the artery was removed, washed free of blood with saline, fixed by immersion in 10% formalin and divided into 8 cross-segments about 2 mm long. The segments were embedded in paraffin and cut into transverse sections. These sections were stained with orecin. About 70 transverse sections were prepared form each artery and used for the quantitation of the initimal thickening.
Quantitation of Intimal Thickening (Intimal Thickening Index)
The arterial sections were observed by light microscopy and the intimal thickening was scored as follows. 0=no thickening; 1=slight hyperplasia in the subendothelial space with intima media ratio of about 1/10; 2=several layers of cells in the subendothelial space with intima media ratio of about 1/5, or parts of the subendothelial space with more hyperplasia; 3=sever hyperplasia throughout the subendothelial space with intima media ratio of more than 1/3.

The mark [4] stands for this setting: 0.1 mg/kg, P < 0.01 compared with vehicle control.
[5] abbreviates: 10 mg/kg, P < 0.01 compared with vehicle control.

As a reminder, the IC50 is the midpoint of a concentration-inhibition curve. In the case of `CCCCC1(CCCC)CCc2c(OCc3ccc4ccccc4n3)cccc2C1O` (single isomer, unassigned; (+)) [Example 40, (+)-2,2-dibutyl-5-(2-quinolylmethoxy)-1,2,3,4-tetrahydro-1-naphthol], the concentration for half-maximal inhibition (IC50) in experiment [1] was found to be 6.5 nM. Further, the “% survival” value in experiment [2] (10 mg/kg) is given as 10%; in experiment [2] (32 mg/kg), 35%; in experiment [2] (100 mg/kg) it was 85%. Further, the “prevention of CDE-induced pancreatitis (in words)” value in experiment [2] (orally, 10-100 mg/kg) was “prevented the CDE-induced pancreatitis in a dose-dependent manner”. Moreover, the “Intimal thickening index, percentage versus the mean value of vehicle control” value was determined as 90.1% in experiment [3] (0.01 mg/kg), 50.4% in experiment [3] (setting [4]), 65.9% in experiment [3] (1.0 mg/kg) and 42.5% in experiment [3] (setting [5]). The Intimal thickening index is recorded as 1.27 ± 0.17 in experiment [3] (0.01 mg/kg), 0.71 ± 0.16 in experiment [3] (setting [4]), 0.93 ± 0.31 in experiment [3] (1.0 mg/kg) and 0.60±0.21 in experiment [3] (setting [5]). Besides, the “inhibition of cuff-induced intimal thickening (in words)” value in experiment [3] (0.01-10 mg/kg) was “dose-dependently inhibited cuff-induced intimal thickening”. The “inhibitory activity on intimal thickening (in words)” value in experiment [3] (10 mg/kg) is recorded as “exerted significant inhibitory activity”.

Regarding `CCCCC1(CCCC)CCc2c(OCc3ccc4ccccc4n3)cccc2C1=O` [Example 25, 2,2-Dibutyl-3,4-dihydro-5-(2-quinolylmethoxy)-(1(2H)-naphthalenone hydrochloride], the concentration for half-maximal inhibition (IC50) in experiment [1] was found to be 620 nM.

Take `CCCCC1(CCCC)CCc2c(OCc3ccc4ccccc4n3)cccc2C1O` (stereo not drawn) [Example 6, 2,2-dibutyl-5-(2-quinolylmethoxy)-1,2,3,4-tetrahydro-1-naphthol]: in experiment [1], the half-maximal inhibitory concentration (IC50) was 8.7 nM.

Turning to `CCCCC1(CCCC)CCc2c(OCc3ccc(C(N)=O)cc3)cccc2C1O` (stereo not drawn) [Example 16, 2,2-Dibutyl-5-(4-carbamoylbenzyloxy)-1,2,3,4-tetrahydro-1-naphthol], the IC50 in experiment [1] came out at 370 nM.

Regarding `CCCCC1(CCCC)CCc2c(OCc3ccc4ccccc4n3)ccc(Cl)c2C1O` (stereo not drawn) [Example 33, 8-chloro-2,2-dibutyl-5-(2-quinolylmethoxy)-1,2,3,4-tetrahydro-1-naphthol], in experiment [1], the IC50 stood at 14 nM.

As for `CC(C)CC1(CC(C)C)CCc2c(OCc3ccc4ccccc4n3)cccc2C1O` (stereo not drawn) [Example 37, 2,2-Diisobutyl-5-(2-quinolylmethoxy)-1,2,3,4-tetrahydro-1-naphthol], in experiment [1], the IC50 was 2.5 nM.

As for `CCCCC1(CCCC)CCc2c(OCc3nc4ccccc4s3)cccc2C1O` (stereo not drawn) [Example 11, 2,2-Dibutyl-5-(2-benzothiazolylmethoxy)-1,2,3,4-tetrahydro-1-naphthol], in experiment [1], the IC50 turned out to be 50 nM.

Take `CCCCC1CCc2c(OCc3ccc4ccccc4n3)cccc2C1=O` (stereo not drawn) [Example 17, 2-Butyl-3,4-dihydro-5-(2-quinolylmethoxy)-1(2H)-naphthalenone]: in experiment [1], the half-inhibitory concentration (IC50) is 1900 nM.

For `CCCCC1(CCCC)CCc2c(OCc3ccncc3)cccc2C1O` (stereo not drawn) [Example 12, 2,2-Dibutyl-5-(4-pyridylmethoxy)-1,2,3,4-tetrahydro-1-naphthol], the half-inhibitory concentration (IC50) in experiment [1] was found to be 120 nM.

In the case of `CCCCC1(CCCC)CCc2c(OCc3ccc4ccccc4n3)ccc(F)c2C1O` (stereo not drawn) [Example 34, 2,2-Dibutyl-8-fluoro-5-(2-quinolylmethoxy)-1,2,3,4-tetrahydro-1-naphthol], the IC50 in experiment [1] was found to be 2.2 nM.
